US10035800B2 (AbbVie Inc., priority 2013, dated 2018)
Where two headings read alike, the source gives them in different places.

Key:
[1] = molecular target: T1, BRD4 (BDI_K57-E168) (Homo sapiens, UniProt O60885); test: TR-FRET bromodomain binding assay, first bromodomain of BRD4; details: 100 nM probe
T1 construct: BD1: amino acids K57-E168; made in house
Outline: (§1)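 Ki values derive from IC50s using probe Kd and concentration, with IC50s fitted to normalized TR-FRET ratios (Ex 340/Em 495, 520). Compounds competed against an Alexa647-labelled BET-inhibitor (100 nM BDI, 30 nM BDII) for 8 nM His-tagged bromodomain bound by Eu-anti-His antibody, 1 h, room temperature, pH 6.0.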

[2] = molecular target: T2, BRD4 (BDII_E352-M457) (Homo sapiens, UniProt O60885); test: TR-FRET bromodomain binding assay, second bromodomain of BRD4; details: 30 nM probe
T2 construct: protocol; made in house
Outline: as §1

[3] = test system: breast cancer cell line MX-1; test: MX-1 cell line proliferation assay; type: cell-based; details: MX-1 cells, 3-day proliferation assay, Cell Titer Glo, read-out: Cellular proliferation: EC50
Outline: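 EC50 comes from sigmoidal fits of Cell Titer Glo luminescence relative to DMSO controls, with assay MSR 2.1. Ten-point 3-fold dilutions (top 3 or 1 μM final) were added to MX-1 breast cancer cells after overnight adhesion. Cells were at 5000/well and proliferation ran 3 days.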

[4] = test system: IL-6 (Interleukin-6) production; test: LPS (lipopolysaccharide) induced IL-6 production mouse assay; type: in vivo, mice; details: oral administration 1 h before LPS 2.5 mg/kg ip, serum 2 h after LPS, p < 0.05 vs vehicle
Description: LPS (Lipopolysaccharide) Induced IL-6 Production Mouse Assay
Compounds of the Examples listed in Table 2 were assayed for their ability to inhibit LPS (lipopolysaccharide) induced IL-6 (Interleukin-6) production in mice. Fox Chase SCID® female mice (Charles Rivers Labs, 5 per group) or CD1 female mice (5 per group) received an intraperitoneal challenge of lipopolysaccharide (2.5 mg/kg, L2630 E. coli 0111:B4) one hour after oral administration of compounds. Mice were euthanized 2 hours after lipopolysaccharide injection, blood was removed by cardiac puncture, and then the serum harvested from the blood samples was frozen at −80° C. On the day of the assay the serum samples were brought to room temperature and then diluted 1:20 in phosphate-buffered saline containing 2% bovine serum albumin. Interleukin-6 measurements were performed using a cytokine assay from Meso Scale Discovery (Gaithersburg, Md.) for mouse serum analysis according to the manufacturer's protocol and read on a SECTOR Imager 6000 (Meso Scale Discovery, Gaithersburg, Md.) instrument. Statistical analysis was performed using Prism software (version 5.0) incorporating Dunnett's one way ANOVA. The IL-6 mean and standard deviation of the group of vehicle treated animals were compared with the IL-6 mean and standard deviation of the group treated with drug. A p value <0.05 means that there is less than a 5% probability that the mean values in the two groups are equal.

[5] = TR-FRET assay protocol E (compound 9.19 μM-150 pM)
[6] = TR-FRET assay protocol G (compound 0.92 μM-15 pM)

Cn1cc2c3c(c[nH]c3c1=O)CN(C1CCC(F)(F)CC1)c1ccc(CS(C)(=O)=O)cc1-2 [Example 30, 4-(4,4-difluorocyclohexyl)-10-methyl-7-((methylsulfonyl)methyl)-3,4-dihydro-1H-1,4,10-triazadibenzo[cd,f]azulen-11(10H)-one]
Ki [1, 5]: 4.98 nM | Ki [2, 5]: 1.36 nM | EC50 [3]: 1.39 nM | % inhibition of LPS induced IL-6 production ([4]; mouse strain SCID): 81%

CCNC(=O)c1[nH]c2c(=O)n(C)cc3c2c1CN(c1ccc(F)cc1F)c1ccc(CS(C)(=O)=O)cc1-3 [Example 202, 4-(2,4-difluorophenyl)-N-ethyl-10-methyl-7-((methylsulfonyl)methyl)-11-oxo-3,4,10,11-tetrahydro-1H-1,4,10-triazadibenzo[cd,f]azulene-2-carboxamide]
Ki [1, 6]: 0.79 nM | Ki [2, 6]: 0.35 nM | EC50 [3]: 4.3 nM | % inhibition of LPS induced IL-6 production ([4]; mouse strain CD1): 47%

CN1CCN(C(=O)c2[nH]c3c(=O)n(C)cc4c3c2CN(c2ccc(Cl)cc2)c2ccc(CS(C)(=O)=O)cc2-4)CC1 [Example 60, 4-(4-chlorophenyl)-10-methyl-2-(4-methylpiperazine-1-carbonyl)-7-((methylsulfonyl)methyl)-3,4-dihydro-1H-1,4,10-triazadibenzo[cd,f]azulen-11(10H)-one]
Ki [1, 6]: 2.55 nM | Ki [2, 6]: 33.1 nM | EC50 [3]: 115 nM | % inhibition of LPS induced IL-6 production ([4]; mouse strain CD1): 44%

CC(C)CN1Cc2c[nH]c3c(=O)n(C)cc(c23)-c2cc(CS(C)(=O)=O)ccc21 [Example 149, 4-isobutyl-10-methyl-7-((methylsulfonyl)methyl)-3,4-dihydro-1H-1,4,10-triazadibenzo[cd,f]azulen-11(10H)-one]
Ki [1, 6]: 1.78 nM | Ki [2, 6]: 0.82 nM | EC50 [3]: 1.93 nM | % inhibition of LPS induced IL-6 production ([4]; mouse strain CD1): 86%

4-(cyclopropylmethyl)-10-methyl-7-((methylsulfonyl)methyl)-3,4-dihydro-1H-1,4,10-triazadibenzo[cd,f]azulen-11(10H)-one [Example 6]
Ki [1, 5]: 1.08 nM | Ki [2, 5]: 1.71 nM | EC50 [3]: 2.01 nM | % inhibition of LPS induced IL-6 production ([4]; mouse strain SCID): 64%

Cn1cc2c3c(c[nH]c3c1=O)CN(c1ccc(Cl)cc1)c1ccc(CS(C)(=O)=O)cc1-2 [Example 198, 4-(4-chlorophenyl)-10-methyl-7-((methylsulfonyl)methyl)-3,4-dihydro-1H-1,4,10-triazadibenzo[cd,f]azulen-11(10H)-one]
Ki [1, 6]: 1.59 nM | Ki [2, 6]: 0.63 nM | EC50 [3]: 0.69 nM | % inhibition of LPS induced IL-6 production ([4]; mouse strain CD1): 86%

Cn1cc2c3c(c[nH]c3c1=O)CN(c1ccc(F)cc1)c1ccc(S(C)(=O)=O)cc1-2 [Example 8, 4-(4-fluorophenyl)-10-methyl-7-(methylsulfonyl)-3,4-dihydro-1H-1,4,10-triazadibenzo[cd,f]azulen-11(10H)-one]
Ki [1, 5]: 0.646 nM | Ki [2, 5]: 3.77 nM | EC50 [3]: 5.68 nM | % inhibition of LPS induced IL-6 production ([4]; mouse strain SCID): 53%

4-(2,4-difluorophenyl)-10-methyl-7-((methylsulfonyl)methyl)-11-oxo-3,4,10,11-tetrahydro-1H-1,4,10-triazadibenzo[cd,f]azulene-5-carbonitrile [Example 206]
Ki [1, 6]: 0.96 nM | Ki [2, 6]: 0.51 nM | EC50 [3]: 1.41 nM | % inhibition of LPS induced IL-6 production ([4]; mouse strain CD1): 76%

5,7-difluoro-10-methyl-4-((tetrahydrofuran-3-yl)methyl)-3,4-dihydro-1H-1,4,10-triazadibenzo[cd,f]azulen-11(10H)-one [Example 42]
Ki [1, 6]: 1.56 nM | Ki [2, 6]: 2.03 nM | EC50 [3]: 5.44 nM | % inhibition of LPS induced IL-6 production ([4]; mouse strain CD1): 86%

Cn1cc2c3c(c[nH]c3c1=O)CN(c1ccc(F)cc1F)c1c-2cc(CS(C)(=O)=O)cc1C1CC1 [Example 195, 5-cyclopropyl-4-(2,4-difluorophenyl)-10-methyl-7-((methylsulfonyl)methyl)-3,4-dihydro-1H-1,4,10-triazadibenzo[cd,f]azulen-11(10H)-one]
Ki [1, 6]: 2.66 nM | Ki [2, 6]: 0.62 nM | EC50 [3]: 3.77 nM | % inhibition of LPS induced IL-6 production ([4]; mouse strain CD1): 85%

Cn1cc2c3c(c(C(N)=O)[nH]c3c1=O)CN(c1ccc(Cl)cc1)c1ccc(CS(C)(=O)=O)cc1-2 [Example 58, 4-(4-chlorophenyl)-10-methyl-7-((methylsulfonyl)methyl)-11-oxo-3,4,10,11-tetrahydro-1H-1,4,10-triazadibenzo[cd,f]azulene-2-carboxamide]
Ki [1, 6]: 2.02 nM | Ki [2, 6]: 0.617 nM | EC50 [3]: 5.38 nM | % inhibition of LPS induced IL-6 production ([4]; mouse strain CD1): 39%

N-ethyl-4-(4-fluorophenyl)-10-methyl-7-((methylsulfonyl)methyl)-11-oxo-3,4,10,11-tetrahydro-1H-1,4,10-triazadibenzo[cd,f]azulene-2-carboxamide [Example 194]
Ki [1, 6]: 1.33 nM | Ki [2, 6]: 0.38 nM | EC50 [3]: 1.47 nM | % inhibition of LPS induced IL-6 production ([4]; mouse strain CD1): 53%

Cn1cc2c3c(c[nH]c3c1=O)CN(C1CCCOC1)c1ccc(CS(C)(=O)=O)cc1-2 (racemic) [Example 182, 10-methyl-7-((methylsulfonyl)methyl)-4-(tetrahydro-2H-pyran-3-yl)-3,4-dihydro-1H-1,4,10-triazadibenzo[cd,f]azulen-11(10H)-one]
Ki [1, 6]: 1.31 nM | Ki [2, 6]: 2 nM | EC50 [3]: 1.08 nM | % inhibition of LPS induced IL-6 production ([4]; mouse strain CD1): 77%

4-((4,4-difluorocyclohexyl)methyl)-10-methyl-7-((methylsulfonyl)methyl)-3,4-dihydro-1H-1,4,10-triazadibenzo[cd,f]azulen-11(10H)-one [Example 27]
Ki [1, 5]: 1.19 nM | Ki [2, 5]: 1.01 nM | EC50 [3]: 1.27 nM | % inhibition of LPS induced IL-6 production ([4]; mouse strain SCID): 79%

CCS(=O)(=O)Nc1cnc2c(c1)-c1cn(C)c(=O)c3[nH]cc(c13)CN2c1ccc(F)cc1F [Example 23, N-(4-(2,4-difluorophenyl)-10-methyl-11-oxo-3,4,10,11-tetrahydro-1H-1,4,5,10-tetraazadibenzo[cd,f]azulen-7-yl)ethanesulfonamide]
Ki [1, 5]: 1.7 nM | Ki [2, 5]: 0.783 nM | EC50 [3]: 7 nM | % inhibition of LPS induced IL-6 production ([4]; mouse strain SCID): 54%

10-methyl-7-((methylsulfonyl)methyl)-4-((tetrahydro-2H-pyran-3-yl)methyl)-3,4-dihydro-1H-1,4,10-triazadibenzo[cd,f]azulen-11(10H)-one [Example 29]
Ki [1, 5]: 6.95 nM | Ki [2, 5]: 2.74 nM | EC50 [3]: 1.03 nM | % inhibition of LPS induced IL-6 production ([4]; mouse strain SCID): 76%

CCNC(=O)c1[nH]c2c(=O)n(C)cc3c2c1CN(c1ccc(Cl)cc1)c1ccc(CS(C)(=O)=O)cc1-3 [Example 59, 4-(4-chlorophenyl)-N-ethyl-10-methyl-7-((methylsulfonyl)methyl)-11-oxo-3,4,10,11-tetrahydro-1H-1,4,10-triazadibenzo[cd,f]azulene-2-carboxamide]
Ki [1, 6]: 3.1 nM | Ki [2, 6]: 0.972 nM | EC50 [3]: 3.8 nM | % inhibition of LPS induced IL-6 production ([4]; mouse strain CD1): 68%

[2H]C1([2H])c2c[nH]c3c(=O)n(C)cc(c23)-c2cc(CS(C)(=O)=O)ccc2N1c1ccc(F)cc1 [Example 31, 4-(4-fluorophenyl)-(3,3-^2H2)-10-methyl-7-((methylsulfonyl)methyl)-3,4-dihydro-1H-1,4,10-triazadibenzo[cd,f]azulen-11(10H)-one]
Ki [1, 6]: 1.67 nM | Ki [2, 6]: 1.18 nM | EC50 ([3]; Homo sapiens, MX1, 72 h): 0.752 nM | % inhibition of LPS induced IL-6 production ([4]; mouse strain SCID): 83%
